Assay results from publication PMC6327983, “Discovery of cyanopyridine scaffold as novel indoleamine-2,3-dioxygenase 1 (IDO1) inhibitors through virtual screening and preliminary hit optimisation” (Journal of Enzyme Inhibition and Medicinal Chemistry, 2019).

Tests used:
IDO1 [1] = molecular target: T1, IDO1 (Homo sapiens, UniProt P14902); assay: Enzyme-based IDO1 activity assay; type: biochemical; conditions: purified human IDO1 enzyme; read-out: Enzymatic assay IC50 (hIDO1)
T1 construct: made in house

ferric IDO1 = molecular target: T2, ferric IDO1 (Homo sapiens, UniProt P14902); assay: Measurement of IDO1 absorbance spectra (UV–visible); type: binding; conditions: 20 µM compound, 5 µM IDO1, phosphate buffer pH 6.5; 406 nm in absence of compound
T2 construct: made in house
Description: Absorbance spectra (250–480 nm) were measured immediately after addition of compound LBJ-10 (20 µM in 0.5% DMSO) to IDO1 (5 µM) in phosphate buffer (pH 6.5) using a Tecan Safire2 microplate reader.
A UV–visible spectra study was performed to evaluate the binding of the representative compound LBJ-10 (Figure 11). The absorption spectrum of the haeme group is highly sensitive to the changes in the polarity of haeme surrounding upon the ligand or substrate binding, leading to the change of spectra properties of the haeme. The UV–visible spectra of ferric IDO1 was measured in the presence and absence of compound LBJ-10.

IDO1 [2] = molecular target: T1, IDO1; assay: Determination of the inhibition type (rate V against enzyme amount E); type: biochemical; conditions: 1 µM inhibitor, 50 µM L-tryptophan
Description: The standard assay mixture (1 ml) contained 50 mM potassium phosphate buffer (pH = 6.5), 25 mM neutralised ascorbic acid, 10 µM methylene blue, 100 µg/mL catalase, 50 µM L-Trp, DMSO (0.5%), and eight different concentrations of IDO1. In addition, 1 µM LBJ-10 solution was added into the mixture. The reaction, at 37 °C, was started by the addition of the substrate and terminated after 60 min by adding 200 µL of 30% (w/v) trichloroacetic acid and further incubated at 50 °C for 30 min to hydrolyse N-formylkynurenine to produce kynurenine. After centrifugation at 12,000 rpm for 15 min at 20 °C, kynurenine in the supernatant (1 mL) was measured by a HPLC system with a reversed phase column (4.6 mm × 15 cm) of GL Sciences Inc. The mobile phase was 10 mM ammonium acetate containing 10% (w/v) methanol, and kynurenine was detected by absorbance at 360 nm. All determinations were carried out in duplicate. The data presented are average values. Based on the results of the activity assay, a function of rate ([V]) against enzyme amount ([E]) was proposed.
We also carried the additional experiment to determine the reversibility of compound LBJ-10. Detailed kinetics analysis was performed on LBJ-10 based on plotting a function of the rate (V) against the enzyme amount ([E]) (Figure 12(A))[58]^,[59]. […]

T1 sequence (P14902 whole entry): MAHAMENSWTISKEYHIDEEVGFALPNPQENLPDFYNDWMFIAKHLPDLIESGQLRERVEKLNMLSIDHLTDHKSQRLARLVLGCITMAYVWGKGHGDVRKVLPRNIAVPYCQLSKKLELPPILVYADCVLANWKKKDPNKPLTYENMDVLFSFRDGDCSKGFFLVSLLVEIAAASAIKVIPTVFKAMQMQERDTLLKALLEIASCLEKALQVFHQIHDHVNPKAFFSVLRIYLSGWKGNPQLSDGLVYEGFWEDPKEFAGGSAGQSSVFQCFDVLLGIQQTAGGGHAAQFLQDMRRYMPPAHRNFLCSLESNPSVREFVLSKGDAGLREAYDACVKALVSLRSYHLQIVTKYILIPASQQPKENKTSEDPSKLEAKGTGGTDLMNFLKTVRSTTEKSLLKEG
T2 sequence (P14902 whole entry): as above

IC50 (IDO1 [1]): 840 ± 330 nM
Soret peak of ferric IDO1 in the presence of compound (ferric IDO1): 416 nm
Inhibition type (reversibility) (IDO1 [2]): reversible inhibitor
SMILES: N#Cc1ccc(C(F)(F)F)nc1SCC(=O)Nc1ccc(F)c(Cl)c1 [LBJ-10, N-(3-chloro-4-fluorophenyl)-2-((3-cyano-6-(trifluoromethyl)pyridin-2-yl)thio) acetamide]
